# Data reported in US8785486B2, “Imidazo[1,2-A]pyridine derivatives and their use as positive allosteric modulators of mGluR2 receptors” (Janssen Pharmaceuticals, Inc., priority 2007, dated 2014).
# Molecular target: T1, human mGluR2 receptor (Homo sapiens, UniProt Q14416)
# T1 construct: expressed in transfected cells; host or cells: CHO cells
# Assay: [35S]GTPγS binding assay (PAM assay) using membranes from cells transfected with the human mGluR2 receptor
# Assay type: biochemical
# Conditions: membranes of CHO cells with human mGluR2; glutamate at predetermined EC25 concentration; averages of duplicate values of 11-concentration response curves
# Protocol: The [^35S]GTPγS binding assay is a functional membrane-based assay used to study G-protein coupled receptor (GPCR) function whereby incorporation of a non-hydrolysable form of GTP, [^35S]GTPγS (guanosine 5′-triphosphate, labelled with […] ^35S), is measured.
# CHO-cells were cultured to pre-confluence and stimulated with 5 mM butyrate for 24 hours, prior to washing in PBS, and then collection by scraping in homogenisation buffer (50 mM Tris-HCl buffer, pH 7.4, 4° C.). Cell lysates were homogenized briefly (15 s) using an ultra-turrax homogenizer. The homogenate was centrifuged at 23 500×g for 10 minutes and the supernatant discarded. The pellet was resuspended in 5 mM Tris-HCl, pH 7.4 and centrifuged again (30 000×g, 20 min, 4° C.). The final pellet was resuspended in 50 mM HEPES, pH 7.4 and stored at −80° C. in appropriate aliquots before use. Protein concentration was determined by the Bradford method (Bio-Rad, USA) with bovine serum albumin as standard.
# Measurement of mGluR2 positive allosteric modulatory activity of test compounds in membranes containing human mGluR2 was performed using frozen membranes that were thawed and briefly homogenised prior to pre-incubation in 96-well microplates (15 μg/assay well, 30 minutes, 30° C.) in assay buffer (50 mM HEPES pH 7.4, 100 mM NaCl, 3 mM MgCl2, 50 μM GDP, 10 μg/ml saponin,) with increasing concentrations of positive allosteric modulator (from 0.3 nM to 50 μM) and either a minimal pre-determined concentration of glutamate (PAM assay), or no added glutamate. […] After addition of [^35S]GTPγS (0.1 nM, f.c.) to achieve a total reaction volume of 200 μl, microplates were shaken briefly and further incubated to allow [^35S]GTPγS incorporation on activation (30 minutes, 30° C.). The reaction was stopped by rapid vacuum filtration over glass-fibre filter plates (Unifilter 96-well GF/B filter plates, Perkin-Elmer, Downers Grove, USA) microplate using a 96-well plate cell harvester (Filtermate, Perkin-Elmer, USA), and then by washing three times with 300 μl of ice-cold wash buffer (Na2PO4.2H2O 10 mM, NaH2PO4.H2O 10 mM, pH=7.4). Filters were then air-dried, and 40 μl of liquid scintillation cocktail (Microscint-O) was added to each well, and membrane-bound [^35S]GTPγS was measured in a 96-well scintillation plate reader (Top-Count, Perkin-Elmer, USA). Non-specific [^35S]GTPγS binding is determined in the presence of cold 10 μM GTP. Each curve was performed at least once using duplicate sample per data point and at 11 concentrations.
# The concentration-response curves of representative compounds of the present invention in the presence of added EC25 of mGluR2 agonist glutamate to determine positive allosteric modulation (PAM), were generated using the Prism GraphPad software (Graph Pad Inc, San Diego, USA). The curves were fitted to a four-parameter logistic equation (Y=Bottom+(Top-Bottom)/(1+10^((Log EC50−X)*Hill Slope) allowing determination of EC50 values. The EC50 is the concentration of a compound that causes a half-maximal potentiation of the glutamate response. This is calculated by subtracting the maximal responses of glutamate in presence of a fully saturating concentration of a positive allosteric modulator from the response of glutamate in absence of a positive allosteric modulator. The concentration producing the half-maximal effect is then calculated as EC50
# T1 sequence (Q14416 19-872): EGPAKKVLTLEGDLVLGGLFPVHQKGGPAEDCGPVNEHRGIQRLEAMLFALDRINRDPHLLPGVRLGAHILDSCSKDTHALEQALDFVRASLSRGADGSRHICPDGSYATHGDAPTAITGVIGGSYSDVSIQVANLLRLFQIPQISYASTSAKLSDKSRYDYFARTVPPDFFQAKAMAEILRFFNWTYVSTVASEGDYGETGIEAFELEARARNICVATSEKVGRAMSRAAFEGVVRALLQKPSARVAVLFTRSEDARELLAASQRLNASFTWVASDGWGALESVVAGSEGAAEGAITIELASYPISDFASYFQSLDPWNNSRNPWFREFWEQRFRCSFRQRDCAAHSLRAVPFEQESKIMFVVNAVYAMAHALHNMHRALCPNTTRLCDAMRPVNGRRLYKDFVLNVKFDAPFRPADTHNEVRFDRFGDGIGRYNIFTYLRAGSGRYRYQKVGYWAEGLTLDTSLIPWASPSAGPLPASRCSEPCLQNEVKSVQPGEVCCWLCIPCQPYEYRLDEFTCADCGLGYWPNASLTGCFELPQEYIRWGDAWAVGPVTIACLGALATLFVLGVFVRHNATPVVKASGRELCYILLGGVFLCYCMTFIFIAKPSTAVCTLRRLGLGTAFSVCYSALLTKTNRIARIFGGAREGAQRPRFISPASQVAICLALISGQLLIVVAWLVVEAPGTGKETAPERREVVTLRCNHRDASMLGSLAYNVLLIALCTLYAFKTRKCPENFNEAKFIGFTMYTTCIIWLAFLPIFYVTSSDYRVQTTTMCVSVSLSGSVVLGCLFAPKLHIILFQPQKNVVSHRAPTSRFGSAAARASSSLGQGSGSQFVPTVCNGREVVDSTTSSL
row,Structure (SMILES),GTPγS - hR2 PAM pEC50
1,N#Cc1c(N2CCN(c3ncccn3)CC2)ccn2c(CCC3CC3)cnc12 [Example 55],5.96
2,CC(C)(C)c1ccc(-c2ccn3c(CC(F)(F)F)cnc3c2C#N)cc1 [Example 88],6.35
3,"N#Cc1c(-c2ccc(NC3CC3)c(Cl)c2)ccn2c(CC(F)(F)F)cnc12 [Example 105, 7-(3-Chloro-4-cyclopropylamino-phenyl)-3-(2,2,2-trifluoro-ethyl)-imidazo[1,2-a]pyridine-8-carbonitrile]",6.85
4,N#Cc1c(-c2ccc(N3CCCCC3)cc2)ccn2c(CC(F)(F)F)cnc12 [Example 107],6.63
5,N#Cc1c(-c2ccc(N3CCOCC3)c(Cl)c2)ccn2c(CC(F)(F)F)cnc12 [Example 110],5.67
6,N#Cc1c(-c2ccc(OCc3ccccc3)cc2)ccn2c(CC(F)(F)F)cnc12 [Example 120],6.80

# Same assay, conditions: membranes of CHO cells with human mGluR2; glutamate at predetermined EC25 concentration; averages of duplicate values of 11-concentration response curves; read-out: GTPγS - hR2 PAM pEC50 (converted)
row,Structure (SMILES),EC50 [nM]
1,"N#Cc1c(CN2CCC(c3ccccc3)CC2)ccn2c(-c3ccccc3)cnc12 [Example 1, 3-Phenyl-7-(4-phenyl-piperidin-1-ylmethyl)-imidazo[1,2-a]pyridine-8-carbonitrile]",513
2,"N#Cc1c(N2CCC(c3ccccc3)CC2)ccn2c(CC(F)(F)F)cnc12 [Example 3, 7-(4-Phenyl-piperidin-1-yl)-3-(2,2,2-trifluoro-ethyl)-imidazo[1,2-a]pyridine-8-carbonitrile]",123
3,"Cc1cc(Oc2ccc(-c3ccn4c(CC(F)(F)F)cnc4c3C#N)c(F)c2)ccn1 [Example 4, 7-[2-Fluoro-4-(2-methyl-pyridin-4-yloxy)-phenyl]-3-(2,2,2-trifluoro-ethyl)-imidazo[1,2-a]pyridine-8-carbonitrile]",692
4,N#Cc1c(N2CCC(c3ccccc3)CC2)ccn2c(Cc3ccccc3)cnc12 [Example 7],178
5,N#Cc1c(N2CCC(c3ccccc3)CC2)ccn2c(-c3ccccc3)cnc12 [Example 10],398
6,Cc1cc(Oc2ccc(-c3ccn4c(CC(F)(F)F)cnc4c3C#N)cc2)ccn1 [Example 13],589
7,Cc1cc(Oc2ccc(-c3ccn4c(CC(F)(F)F)cnc4c3C#N)cc2F)ccn1 [Example 17],1120
8,CCc1cnc2c(C#N)c(-c3ccc(Oc4ccnc(C)c4)cc3)ccn12 [Example 18],1320
9,N#Cc1c(CN2CCC(c3ccccc3)CC2)ccn2c(CC(F)(F)F)cnc12 [Example 27],295
10,"N#Cc1c(N2CCC(c3ccccc3)CC2)ccn2c(C(F)(F)F)cnc12 [Example 29, 7-(4-Phenyl-piperidin-1-yl)-3-trifluoromethyl-imidazo[1,2-a]pyridine-8-carbonitrile]",776
11,N#Cc1c(CN2CCN(c3ccc(F)cc3F)CC2)ccn2c(CC(F)(F)F)cnc12 [Example 39],1380
12,FC(F)(F)Cc1cnc2c(Cl)c(CN3CCC(c4ccccc4)CC3)ccn12 [Example 42],562
13,N#Cc1c(N2CCC(c3ccccc3)CC2)ccn2c(C3CC3)cnc12 [Example 49],676
14,N#Cc1c(N2CCN(c3ccc(F)cc3F)CC2)ccn2c(CC(F)(F)F)cnc12 [Example 52],275
15,Cc1cccnc1N1CCN(c2ccn3c(CC(F)(F)F)cnc3c2C#N)CC1 [Example 53],1350
16,Cc1cnc(N2CCN(c3ccn4c(CC(F)(F)F)cnc4c3C#N)CC2)nc1 [Example 56],646
17,N#Cc1c(N2CCC(c3ccc(N4CCOCC4)cc3)CC2)ccn2c(CC(F)(F)F)cnc12 [Example 57],479
18,CC(O)c1ccc(C2CCN(c3ccn4c(CC(F)(F)F)cnc4c3C#N)CC2)cc1 (stereo not shown) [Example 59],372
19,Cc1ccnc(N2CCN(c3ccn4c(CC(F)(F)F)cnc4c3C#N)CC2)n1 [Example 60],525
20,"COc1c(F)cccc1C1CCN(c2ccn3c(CC(F)(F)F)cnc3c2C#N)CC1 [Example 61, 7-[4-(3-Fluoro-2-methoxy-phenyl)-piperidin-1-yl]-3-(2,2,2-trifluoro-ethyl)-imidazo[1,2-a]pyridine-8-carbonitrile]",37.2
21,COc1cccc(F)c1C1CCN(c2ccn3c(CC(F)(F)F)cnc3c2C#N)CC1 [Example 69],9.77
22,Fc1ccc(Oc2ccc(-c3ccn4c(CC(F)(F)F)cnc4c3Cl)cc2)cc1 [Example 70],269
23,N#Cc1c(-c2ccc(C(F)(F)c3ccccc3)cc2)ccn2c(CC(F)(F)F)cnc12 [Example 72],214

row,Structure (SMILES),EC50 [nM]
1,N#Cc1c(-c2ccc(Oc3ccccc3)c(F)c2)ccn2c(CC(F)(F)F)cnc12 [Example 76],269
2,N#Cc1c(-c2ccc(Oc3ccc(C(=O)O)cc3)cc2)ccn2c(CC(F)(F)F)cnc12 [Example 83],676
3,N#Cc1c(-c2ccc(OC3CCCC3)c(Cl)c2)ccn2c(CC(F)(F)F)cnc12 [Example 84],302
4,CC(C)(O)COc1ccc(-c2ccn3c(CC(F)(F)F)cnc3c2C#N)cc1Cl [Example 86],3160
5,CC(C)Oc1ccc(-c2ccn3c(CC(F)(F)F)cnc3c2C#N)cc1Cl [Example 87],309
6,N#Cc1c(-c2ccc(OC3CCOCC3)c(Cl)c2)ccn2c(CC(F)(F)F)cnc12 [Example 90],676
7,"N#Cc1c(-c2ccc(N[C@H]3CC[C@@H](O)CC3)c(Cl)c2)ccn2c(CC(F)(F)F)cnc12 [Example 95, (cis)-7-[3-Chloro-4-(4-hydroxy-cyclohexylamino)-phenyl]-3-(2,2,2-trifluoro-ethyl)-imidazo[1,2-a]pyridine-8-carbonitrile]",186
8,C[C@]1(O)CC[C@H](Oc2ccc(-c3ccn4c(CC(F)(F)F)cnc4c3C#N)cc2Cl)CC1 [Example 97],603
9,"CC1(O)CCC(Nc2ccc(-c3ccn4c(CC(F)(F)F)cnc4c3Cl)cc2Cl)CC1 (stereo not shown) [Example 98, 4-{2-Chloro-4-[8-chloro-3-(2,2,2-trifluoro-ethyl)-imidazo[1,2-a]pyridin-7-yl]-phenylamino}-1-methyl-cyclohexanol]",490
10,N#Cc1c(-c2ccc(O[C@H]3CC[C@H](O)CC3)c(Cl)c2)ccn2c(CC(F)(F)F)cnc12 [Example 102],851
11,C[C@]1(O)CC[C@@H](Oc2ccc(-c3ccn4c(CC(F)(F)F)cnc4c3C#N)cc2Cl)CC1 [Example 104],1050
12,N#Cc1c(-c2ccc(NC3CC3)c(F)c2)ccn2c(CC(F)(F)F)cnc12 [Example 106],6310
13,N#Cc1c(-c2ccc(N3CCCC3)c(Cl)c2)ccn2c(CC(F)(F)F)cnc12 [Example 108],457
14,FC(F)(F)Cc1cnc2c(Cl)c(-c3ccc(N4CCCCC4)cc3)ccn12 [Example 109],275
15,N#Cc1c(-c2ccc(N3CCC(O)CC3)cc2)ccn2c(CC(F)(F)F)cnc12 [Example 111],1050
16,N#Cc1c(-c2ccc(COc3ccccc3F)cc2)ccn2c(CC(F)(F)F)cnc12 [Example 113],155
17,N#Cc1c(N2CCc3c([nH]c4ccccc34)C2)ccn2c(CC(F)(F)F)cnc12 [Example 117],692
18,N#Cc1c(N2CCC(c3ccccc3CCF)CC2)ccn2c(CC(F)(F)F)cnc12 [Example 118],63.1
19,N#Cc1c(N2CCC(c3cccc(F)c3OCCF)CC2)ccn2c(CC(F)(F)F)cnc12 [Example 119],57.5
20,N#Cc1c(N2CCC(c3ccccc3)(N3CCOCC3)CC2)ccn2c(CC(F)(F)F)cnc12 [Example 121],2090
21,N#Cc1c(N2CCC([C@H]3CC[C@H](O)CC3)CC2)ccn2c(CC(F)(F)F)cnc12 [Example 122],550
22,FC(F)(F)Cc1cnc2c(Cl)c(CN3CCC4(CC3)COc3ccccc3O4)ccn12 [Example 124],794
23,FC(F)(F)Cc1cnc2c(Cl)c(N3CCC4(CC3)CN(c3ccccc3)C4)ccn12 [Example 125],1780
